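96-well plates; 48 h exposure; 5 concentrations. Endpoints by linear interpolation between flanking doses. Not reached: highest tested concentration assigned. GI50: concentration for 50% inhibition of growth. TGI is the concentration that stops growth completely.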
Legend:
Test in all cases: growth of human tumour cells (NCI), 48 h
[1] = tested on: 786-0 renal
[2] = tested on: A498 renal
[3] = tested on: A549 NSCLC
[4] = tested on: ACHN renal
[5] = tested on: BT-549 breast
[6] = tested on: CAKI-1 renal
[7] = tested on: CCRF-CEM leukemia
[8] = tested on: COLO 205 colon
[9] = tested on: DU-145 prostate
[10] = tested on: EKVX NSCLC
[11] = tested on: HCC-2998 colon
[12] = tested on: HCT-116 colon
[13] = tested on: HCT-15 colon
[14] = tested on: HL-60(TB) leukemia
[15] = tested on: HOP-62 NSCLC
[16] = tested on: HOP-92 NSCLC
[17] = tested on: HS 578T breast
[18] = tested on: HT29 colon
[19] = tested on: IGROV1 ovarian
[20] = tested on: K-562 leukemia
[21] = tested on: KM12 colon
[22] = tested on: LOX IMVI melanoma
[23] = tested on: M14 melanoma
[24] = tested on: MALME-3M melanoma
[25] = tested on: MCF7 breast
[26] = tested on: MDA-MB-231 breast
[27] = tested on: MDA-MB-435
[28] = tested on: MOLT-4 leukemia
[29] = tested on: NCI-H226 lung
[30] = tested on: NCI-H23 lung
[31] = tested on: NCI-H460 lung
[32] = tested on: NCI-H522 lung
[33] = tested on: NCI/ADR-RES ovarian
[34] = tested on: OVCAR-3 ovarian
[35] = tested on: OVCAR-4 ovarian
[36] = tested on: OVCAR-5 ovarian
[37] = tested on: OVCAR-8 ovarian
[38] = tested on: PC-3 prostate
[39] = tested on: RPMI-8226 leukemia
[40] = tested on: SF-268 CNS
[41] = tested on: SF-295 CNS
[42] = tested on: SF-539 CNS
[43] = tested on: SK-MEL-2 melanoma
[44] = tested on: SK-MEL-28 melanoma
[45] = tested on: SK-MEL-5 melanoma
[46] = tested on: SK-OV-3 ovarian
[47] = tested on: SN12C renal
[48] = tested on: SNB-19 CNS
[49] = tested on: SNB-75 CNS
[50] = tested on: SR leukemia
[51] = tested on: SW-620 colon
[52] = tested on: T-47D breast
[53] = tested on: TK-10 renal
[54] = tested on: U251 CNS
[55] = tested on: UACC-62 melanoma
[56] = tested on: UO-31 renal

CCC(=C/[C@H](C)C/C=C/C(C)=C/[C@@H](C)C(=O)[C@@H](C)[C@H](O)[C@@H](C)CC)/C=C/[C@H]1OC(=O)C=C[C@@H]1C
GI50 [1]: < 10 nM
TGI [1]: < 21.9 nM
GI50 [2]: < 10 nM
TGI [2]: < 10 nM
GI50 [3]: < 10 nM
GI50 [4]: < 10 nM
TGI [4]: 566 nM
GI50 [5]: < 10 nM
TGI [5]: 429 nM
GI50 [6]: < 10 nM
TGI [6]: 327 nM
GI50 [7]: < 10 nM
TGI [7]: 2660 nM
GI50 [8]: < 10 nM
TGI [8]: 345 nM
GI50 [9]: < 10 nM
TGI [9]: 4560 nM
GI50 [10]: < 10 nM
TGI [10]: 5210 nM
GI50 [11]: < 10 nM
TGI [11]: < 10 nM
GI50 [12]: < 10 nM
TGI [12]: 10.6 nM
GI50 [13]: < 10 nM
TGI [13]: 1280 nM
GI50 [14]: < 10 nM
TGI [14]: 1770 nM
GI50 [15]: < 10 nM
TGI [15]: 1010 nM
GI50 [16]: < 10 nM
TGI [16]: 1200 nM
GI50 [17]: < 10 nM
TGI [17]: 1620 nM
GI50 [18]: < 10 nM
TGI [18]: 1150 nM
GI50 [19]: < 10 nM
TGI [19]: 7670 nM
GI50 [20]: < 10 nM
GI50 [21]: < 10 nM
TGI [21]: 1150 nM
GI50 [22]: < 10 nM
TGI [22]: 1230 nM
GI50 [23]: < 10 nM
TGI [23]: 193 nM
GI50 [24]: < 10 nM
TGI [24]: 175 nM
GI50 [25]: < 10 nM
TGI [25]: 1260 nM
GI50 [26]: < 10 nM
TGI [26]: 2180 nM
GI50 [27]: < 10 nM
TGI [27]: < 18.4 nM
GI50 [28]: < 10 nM
TGI [28]: 114 nM
GI50 [29]: < 10 nM
TGI [29]: 554 nM
GI50 [30]: < 10 nM
TGI [30]: 3360 nM
GI50 [31]: < 10 nM
TGI [31]: 1880 nM
GI50 [32]: < 10 nM
GI50 [33]: < 10 nM
TGI [33]: 4310 nM
GI50 [34]: < 10 nM
TGI [34]: 3960 nM
GI50 [35]: < 10 nM
TGI [35]: 3670 nM
GI50 [36]: < 10 nM
GI50 [37]: < 10 nM
TGI [37]: 10300 nM
GI50 [38]: < 10 nM
TGI [38]: 3040 nM
GI50 [39]: < 10 nM
TGI [39]: 1190 nM
GI50 [40]: < 10 nM
TGI [40]: 1720 nM
GI50 [41]: < 10 nM
TGI [41]: 1430 nM
GI50 [42]: < 10 nM
TGI [42]: < 10 nM
GI50 [43]: < 10 nM
GI50 [44]: < 10 nM
TGI [44]: 1260 nM
GI50 [45]: < 10 nM
TGI [45]: 34.2 nM
GI50 [46]: < 35 nM
TGI [46]: 13400 nM
GI50 [47]: < 10 nM
TGI [47]: 1270 nM
GI50 [48]: < 10 nM
TGI [48]: 2120 nM
GI50 [49]: < 10 nM
TGI [49]: 655 nM
GI50 [50]: < 10 nM
GI50 [51]: < 10 nM
TGI [51]: 1320 nM
GI50 [52]: < 10 nM
TGI [52]: 4880 nM
GI50 [53]: < 10 nM
TGI [53]: 1030 nM
GI50 [54]: < 10 nM
TGI [54]: 1360 nM
GI50 [55]: < 10 nM
TGI [55]: 276 nM
GI50 [56]: < 10 nM
TGI [56]: 1870 nM
